Assay results reported in patent US20160331754A1, “THERAPIES FOR TREATING CANCERS” (GILEAD SCIENCES, INC., priority 2014, published 2016).
“And” between values parts separate entries of the source, which are not always exact repeats. Identical values can stand only once.

Legend:
[1] = system: WIL2-S; assay: ADCC LDH release assay, purified NK cells against WIL2-S target cells; assay type: cell-based, human; settings: for Percentage of ADCC, 5 nM Compound B / Percentage of ADCC, 50 nM Compound B / Percentage of ADCC, 500 nM Compound B: antibody concentration 10 μg/mL; for Percentage of maximum ADCC, obinutuzumab: obinutuzumab 10 μg/mL; for Percentage of maximum ADCC, rituximab: rituximab 10 μg/mL
[2] = system: pS6 Ser235/236; assay: Western blot, TPO-activated S6 phosphorylation in UT-7/TPO cells; assay type: cell-based; settings: then TPO
Procedure: In addition, Compound B was examined for the effects on the PI3K signaling pathway by determining the levels of AKT and S6 phosphorylation with or without TPO activation. Two cell lines, BaF3/MPL and UT-7/TPO sensitive or responsive to TPO activation were used. The cells were starved (i.e. growing on medium having less FBS) in […] FBS/RPMI for two hours before treated with 0.1, 1.0, or 2.0 μM of Compound B or vehicle (0.1% DMSO in RPMI) for 2 hours at 37° C. To examine the TPO-activated phosphorylation, the cells were then treated or activated with 50 ng/mL of human recombinant TPO (Peprotech) for 10 minutes at 37° C. The TPO activation or treatment may reflect the conditions in diseased cells as the PI3K pathway is activated by TPO in myelofibrosis. After treating with compound and/or TPO, the cells were collected, lysed by lysis buffer (Cell Signaling), separated by SDS-PAGE, and analyzed by the Western blot using antibodies specific to p-AKT Ser473 or pS6 Ser235/236 (Cell Signaling). The phosphorylation levels in treated cells were calculated and compared to those of untreated cells (i.e. vehicle as negative control).

[3] = system: p-AKT Ser473; assay: Flow cytometry, TPO-activated AKT phosphorylation in CD34+ progenitor cells from MF patients; assay type: cell-based, human; settings: for p-AKT (table title: percentage of Annexin-V positive cells): cells from Compound A-treated MF patients; for normalized percentage of TPO-activated AKT phosphorylation (p-AKT): TPO-treated vehicle=100
Procedure: PBMCs were isolated from whole blood of myelofibrosis (MF) patients who had not received treatments (i.e. naïve patients) or received ruxolitinib (i.e. rux-treated patients). The cells were treated with 0.02, 0.2, or 2.0 μM of Compound B or vehicle (0.1% DMSO in 0.1% FBS/RPMI) for 2 hours at 37° C. The cells were then fixed, permeabilized, and stained for FACS analysis. Antibodies specific to p-AKT Ser473 and pS6RP Ser235/236 were used to detect AKT phosphorylation (p-AKT) and S6RP phosphorylation (p-S6RP) in CD34^+/CD3^−/CD14^−/CD19/CD66^− (BD Biosciences) gated cells using flow cytometry. The percentage of basal (i.e. untreated with TPO) AKT and S6RP phosphorylation were normalized to vehicle control. A two-tailed paired t-test (GraphPad Prism) was used to calculate p-values. Values of p<0.05 were considered significant.
Also, PBMC cells from naïve or ruxolitinib treated patients were isolated and treated with Compound B and with TPO as described above. The percentage of TPO-activated AKT and S6RP phosphorylation were normalized to those of TPO-treated vehicle (“no TPO” values in Table 4). […] Also, the inhibition to PI3K signaling was dose-dependent to Compound B.
Similar studies were conducted with PI3K inhibitors Compounds C and D. PBMC from MF patients had received ruxolitinib (rux) and MF patient had received Compound A. The cells were treated with Compounds C or D at 0, 20.0, 200.0, 2000.0 nM for 2 hours at 37° C. Cells were treated with TPO for 10 minutes. The percentage of basal p-AKT and p-S6RP levels were normalized to vehicle control and those of TPO-treated were normalized to TPO-treated vehicle control. The PI3Kδ inhibitors Compound C is referred by the chemical names of (S)-2-(1-((9H-purin-6-yl)amino)ethyl)-6-fluoro-3-phenylquinazolin-4(3H)-one.

[4] = Compound B 0.98 nM, FcγRIIIa 158F/F
[5] = Compound B 0.98 nM, FcγRIIIa 158F/V
[6] = Compound B 0.98 nM, FcγRIIIa 158V/V
[7] = Compound B 1.95 nM, FcγRIIIa 158F/F
[8] = Compound B 1.95 nM, FcγRIIIa 158F/V
[9] = Compound B 1.95 nM, FcγRIIIa 158V/V
[10] = Compound B 3.91 nM, FcγRIIIa 158F/F
[11] = Compound B 3.91 nM, FcγRIIIa 158F/V
[12] = Compound B 3.91 nM, FcγRIIIa 158V/V
[13] = Compound B 7.81 nM, FcγRIIIa 158F/F
[14] = Compound B 7.81 nM, FcγRIIIa 158F/V
[15] = Compound B 7.81 nM, FcγRIIIa 158V/V
[16] = Compound B 15.63 nM, FcγRIIIa 158F/V
[17] = Compound B 15.63 nM, FcγRIIIa 158V/V
[18] = Compound B 31.25 nM, FcγRIIIa 158F/V
[19] = Compound B 31.25 nM, FcγRIIIa 158V/V
[20] = Compound B 62.5 nM, FcγRIIIa 158F/F
[21] = Compound B 62.5 nM, FcγRIIIa 158F/V
[22] = Compound B 62.5 nM, FcγRIIIa 158V/V
[23] = Compound B 125 nM, FcγRIIIa 158F/F
[24] = Compound B 125 nM, FcγRIIIa 158F/V
[25] = Compound B 125 nM, FcγRIIIa 158V/V
[26] = Compound B 250 nM, FcγRIIIa 158F/F
[27] = Compound B 250 nM, FcγRIIIa 158F/V
[28] = Compound B 250 nM, FcγRIIIa 158V/V
[29] = Compound B 500 nM, FcγRIIIa 158F/F
[30] = Compound B 500 nM, FcγRIIIa 158F/V
[31] = Compound B 500 nM, FcγRIIIa 158V/V
[32] = Compound B 1000 nM, FcγRIIIa 158F/F, n=2
[33] = Compound B 1000 nM, FcγRIIIa 158F/V, n=2

## CC[C@H](Nc1ncnc2[nH]cnc12)c1nc2cccc(F)c2c(=O)n1-c1ccccc1 [Compound B, (S)-2-(1-((9H-purin-6-yl)amino)propyl)-5-fluoro-3-phenylquinazolin-4(3H)-one]
[1]; E:T 3:1
  Percentage of ADCC, 5 nM Compound B: 58% and 56% and 53% and 49% and 46% and 44% and 39%
  Percentage of ADCC, 50 nM Compound B: 54% and 58% and 50% and 39% and 37% and 44% and 42%
  Percentage of ADCC, 500 nM Compound B: 50% and 53% and 36% and 34% and 39% and 35% and 38%
[1]; E:T 10:1
  Percentage of ADCC, 5 nM Compound B: 72% and 75% and 73% and 79% and 74%
  Percentage of ADCC, 50 nM Compound B: 72% and 74% and 69% and 77% and 76% and 73%
  Percentage of ADCC, 500 nM Compound B: 67% and 73% and 71% and 66% and 70%
[1]; E:T 30:1
  Percentage of ADCC, 5 nM Compound B: 81% and 82% and 79% and 76% and 80% and 77% and 85% and 84%
  Percentage of ADCC, 50 nM Compound B: 76% and 81% and 80% and 79% and 75% and 85% and 84%
  Percentage of ADCC, 500 nM Compound B: 76% and 79% and 77% and 72% and 75% and 81% and 82%
[1]; [4]
  Percentage of maximum ADCC, obinutuzumab: 91% and 104%
  Percentage of maximum ADCC, rituximab: 104% and 107%
[1]; [5]
  Percentage of maximum ADCC, obinutuzumab: 103% and 104%
  Percentage of maximum ADCC, rituximab: 100% and 105%
[1]; [6]
  Percentage of maximum ADCC, obinutuzumab: 101% and 99%
  Percentage of maximum ADCC, rituximab: 102% and 99%
[1]; [7]
  Percentage of maximum ADCC, obinutuzumab: 89% and 106%
  Percentage of maximum ADCC, rituximab: 103% and 111%
[1]; [8]
  Percentage of maximum ADCC, obinutuzumab: 104% and 112%
  Percentage of maximum ADCC, rituximab: 105% and 111%
[1]; [9]
  Percentage of maximum ADCC, obinutuzumab: 107% and 100%
  Percentage of maximum ADCC, rituximab: 105% and 104%
[1]; [10]
  Percentage of maximum ADCC, obinutuzumab: 84% and 108%
  Percentage of maximum ADCC, rituximab: 97% and 109%
[1]; [11]
  Percentage of maximum ADCC, obinutuzumab: 105% and 110%
  Percentage of maximum ADCC, rituximab: 102% and 110%
[1]; [12]
  Percentage of maximum ADCC, obinutuzumab: 103% and 91%
  Percentage of maximum ADCC, rituximab: 102% and 105%
[1]; [13]
  Percentage of maximum ADCC, obinutuzumab: 89% and 107%
  Percentage of maximum ADCC, rituximab: 91% and 108%
[1]; [14]
  Percentage of maximum ADCC, obinutuzumab: 109% and 107%
  Percentage of maximum ADCC, rituximab: 104% and 110%
[1]; [15]
  Percentage of maximum ADCC, obinutuzumab: 94% and 90%
  Percentage of maximum ADCC, rituximab: 100%
[1]; Compound B 15.63 nM, FcγRIIIa 158F/F
  Percentage of maximum ADCC, obinutuzumab: 80% and 108%
[1]; [16]
  Percentage of maximum ADCC, obinutuzumab: 106% and 109%
  Percentage of maximum ADCC, rituximab: 100% and 108%
[1]; [17]
  Percentage of maximum ADCC, obinutuzumab: 93% and 90%
  Percentage of maximum ADCC, rituximab: 98% and 101%
[1]; Compound B 31.25 nM, FcγRIIIa 158F/F
  Percentage of maximum ADCC, obinutuzumab: 85% and 107%
[1]; [18]
  Percentage of maximum ADCC, obinutuzumab: 107%
  Percentage of maximum ADCC, rituximab: 100% and 104%
[1]; [19]
  Percentage of maximum ADCC, obinutuzumab: 95% and 82%
  Percentage of maximum ADCC, rituximab: 94%
[1]; [20]
  Percentage of maximum ADCC, obinutuzumab: 88% and 108%
  Percentage of maximum ADCC, rituximab: 88% and 108%
[1]; [21]
  Percentage of maximum ADCC, obinutuzumab: 112% and 103%
  Percentage of maximum ADCC, rituximab: 101% and 107%
[1]; [22]
  Percentage of maximum ADCC, obinutuzumab: 98% and 78%
  Percentage of maximum ADCC, rituximab: 96% and 99%
[1]; [23]
  Percentage of maximum ADCC, obinutuzumab: 87% and 110%
  Percentage of maximum ADCC, rituximab: 87% and 108%
[1]; [24]
  Percentage of maximum ADCC, obinutuzumab: 111% and 105%
  Percentage of maximum ADCC, rituximab: 105% and 102%
[1]; [25]
  Percentage of maximum ADCC, obinutuzumab: 94% and 84%
  Percentage of maximum ADCC, rituximab: 95% and 98%
[1]; [26]
  Percentage of maximum ADCC, obinutuzumab: 91% and 109%
  Percentage of maximum ADCC, rituximab: 87% and 109%
[1]; [27]
  Percentage of maximum ADCC, obinutuzumab: 106% and 102%
  Percentage of maximum ADCC, rituximab: 98% and 101%
[1]; [28]
  Percentage of maximum ADCC, obinutuzumab: 99% and 89%
  Percentage of maximum ADCC, rituximab: 95% and 94%
[1]; [29]
  Percentage of maximum ADCC, obinutuzumab: 83% and 104%
  Percentage of maximum ADCC, rituximab: 84% and 105%
[1]; [30]
  Percentage of maximum ADCC, obinutuzumab: 106% and 94%
  Percentage of maximum ADCC, rituximab: 95% and 99%
[1]; [31]
  Percentage of maximum ADCC, obinutuzumab: 92% and 79%
  Percentage of maximum ADCC, rituximab: 91% and 96%
[1]; [32]
  Percentage of maximum ADCC, obinutuzumab: 79% and 103%
  Percentage of maximum ADCC, rituximab: 80% and 100%
[1]; [33]
  Percentage of maximum ADCC, obinutuzumab: 105% and 93%
  Percentage of maximum ADCC, rituximab: 95% and 88%
[1]; Compound B 1000 nM, FcγRIIIa 158V/V, n=2
  Percentage of maximum ADCC, rituximab: 87% and 84%
[1]; WIL2-S, E:T=10:1, 4 h, n=9
  effect on obinutuzumab-mediated ADCC: did not affect
[1]; varying E:T ratios, antibody 10 μg/mL, n=3
  effect on NK-mediated ADCC: did not affect
[2]; 0.1 μM 2 h
  reduced p-S6 levels vs vehicle: 13%
[2]; 1.0 μM 2 h
  reduced p-S6 levels vs vehicle: 28%
[2]; 2.0 μM 2 h
  reduced p-S6 levels vs vehicle: 48%
[3]; 0.02 μM, column 0 = 100
  p-AKT (table title: percentage of Annexin-V positive cells): 56% and 74% and 51%
[3]; 0.02 μM, naïve MF patients, one line per patient
  normalized percentage of TPO-activated AKT phosphorylation (p-AKT): 43% and 60% and 58%
[3]; 0.02 μM, rux-treated MF patients
  normalized percentage of TPO-activated AKT phosphorylation (p-AKT): 59% and 60% and 78% and 55% and 57%
[3]; 0.2 μM
  p-AKT (table title: percentage of Annexin-V positive cells): 49% and 71% and 51%
[3]; 0.2 μM, naïve MF patients
  normalized percentage of TPO-activated AKT phosphorylation (p-AKT): 30% and 32% and 41%
[3]; 0.2 μM, rux-treated MF patients
  normalized percentage of TPO-activated AKT phosphorylation (p-AKT): 39% and 52% and 55% and 57% and 36% and 33%
[3]; 2.0 μM, naïve MF patients
  normalized percentage of TPO-activated AKT phosphorylation (p-AKT): 28% and 32% and 27%
